This is an account of results in article PMC4877593, “Design and Synthesis of Potent in Vitro and in Vivo Anticancer Agents Based on 1-(3′,4′,5′-Trimethoxyphenyl)-2-Aryl-1H-Imidazole” (Scientific Reports, 2016).

In general, IC50 refers to the concentration at which inhibition is half-maximal.

The subject of data set [1] is RS4;11. The data set can be described thus: In vitro antiproliferative activity (MTT), RS4;11. The data set is classed as cell-based. The note with it: Homo sapiens, tumor cell proliferation, 72 h, mean ± SE.
For data set [2], the system named is PBL stimulated with PHA. Briefly: Cytotoxicity in PHA-stimulated peripheral blood lymphocytes. In kind it is cell-based, human. The note with it: 72 h, PBL from healthy donors, MTT, read-out: IC50 PBLPHA. Here is the method: This value was almost 600 times higher than that observed against the Jurkat lymphoblastic cell line.
Human T-cell leukemia (CCRF-CEM and Jurkat) and human B-cell leukemia (SEM) cells were grown in RPMI-1640 medium (Gibco, Milano, Italy). Breast adenocarcinoma (MCF7), human cervix carcinoma (HeLa), and human colon adenocarcinoma (HT-29) cells were grown in DMEM medium (Gibco, Milano, Italy), all supplemented with 115 units/mL penicillin G (Gibco, Milano, Italy), 115 μg/mL streptomycin (Invitrogen, Milano, Italy), and 10% fetal bovine serum (Invitrogen, Milano, Italy). Stock solutions (10 mM) of the different compounds were obtained by dissolving them in dimethyl sulfoxide (DMSO). Individual wells of a 96-well tissue culture microtiter plate were inoculated with 100 μL of complete medium containing 8 × 10^3 cells. The plates were incubated at 37 °C in a humidified 5% CO2 incubator for 18 h prior to the experiments. After medium removal, 100 μL of fresh medium containing the test compound at different concentrations was added to each well in triplicate and incubated at 37 °C for 72 h. The percentage of DMSO in the medium never exceeded 0.25%. This was also the maximum DMSO concentration in all cell-based assays described below. […] Different concentrations of the test compounds were added, and viability was determined 72 h later by the MTT test. […]

The test system of data set [3] is Jurkat cells. The data set can be described thus: Cell cycle distribution by flow cytometry (PI), Jurkat. In kind it is cell-based, human. The settings on record: 24 h treatment. Here is the method:
The effects of a 24 h treatment with different concentrations of 4o on cell cycle progression in Jurkat, and HeLa cells were determined by flow cytometry, following propidium iodide (PI) staining of the cells (Fig. 4, Panels A,B). […] In the HeLa cells, the G2/M block was accompanied by a significant reduction of both G1 and S phase cells. In order to determine whether 4o was able to block cells at the mitotic phase (M), cells were stained with an immunofluorescent antibody to p-histone H3, a well known mitotic marker, as well as PI, and analyzed by flow cytometry. As shown in Fig. 4 (Panel C), in which representative histograms are presented, Hela cells arrested in M phase by treatment with 4o are readily distinguished from G2 cells by the higher level of p-histone H3. In particular, treatment with 4o induced an increase in the percentage of mitotic cells from the 2% observed in untreated cells to about 30% with both 50 and 100 nM 4o at 24 h (Fig. 4, Panel D).
5 × 10^5 HeLa or Jurkat cells were treated with different concentrations of the test compounds for 24 h. After the incubation period, the cells were collected, centrifuged, and fixed with ice-cold ethanol (70%). […] Samples were analyzed on a Cytomic FC500 flow cytometer (Beckman Coulter). DNA histograms were analyzed using MultiCycle for Windows (Phoenix Flow Systems).

Data set [4] concerns BL6-B16 mouse melanoma cell line. Briefly: Mouse allograft (syngeneic) tumor model. In kind it is in vivo. The note with it: for reduction of tumor mass: doses on days 9, 11 and 14, C57BL/6 mice. Here is the method: […] As reference compound, CA-4P (1b) was used at 30 mg/kg. The BL6-B16 mouse melanoma cell line, injected subcutaneously in syngeneic C57/BL6 mice, is able to proliferate and generate tumor masses.
Figure 9 Inhibition of mouse allograft growth in vivo by compound 4o. Male C57BL/6 mice were injected subcutaneously at their dorsal region with […] BL6-B16 murine melanoma cells. […] Injections were given intraperitoneally at the days indicated by the arrows. Data are presented as mean ± SEM of tumor volume at each time point for 5 animals per group. *p < 0.05, **p < 0.01 ***p < 0.001 vs. control.
Six week old C57BL/6 mice (Charles River, Calco) were injected subcutaneously into the dorsolateral flank with 2.5 × 10^5 BL6-B16 murine melanoma cells in 200 μL-total volume of PBS. When tumors were palpable, animals were treated intraperitoneally every other day with different doses of test compounds dissolved in 50 μL of DMSO. Tumors were measured in two dimensions, and tumor volume was calculated according to the formula V = (D × d^2)/2, where D and d are the major and minor perpendicular tumor diameters, respectively.

The test system of data set [5] is HeLa cells. Briefly: Western blot analysis of cell cycle, spindle checkpoint and apoptosis proteins. The data set is classed as cell-based, human. Here is the method:
HeLa cells were incubated in the presence of 4o and, after different times, were collected, centrifuged, and washed two times with ice cold phosphate buffered saline (PBS). The pellet was then resuspended in lysis buffer. After the cells were lysed on ice for 30 min, lysates were centrifuged at 15000 × g at 4 °C for 10 min. The protein concentration in the supernatant was determined using the BCA protein assay reagents (Pierce, Italy). Equal amounts of protein (10 μg) were resolved using sodium dodecyl sulfate-polyacrylamide gel electrophoresis (SDS-PAGE) (Criterion Precast, BioRad, Italy) and transferred to a PVDF Hybond-P membrane (GE Healthcare). Membranes were blocked with a bovine serum albumin solution (5% in Tween PBS 1X), the membranes being gently rotated overnight at 4 °C. Membranes were then incubated with primary antibodies against Bcl-2, PARP, cdc25c, CDC20, ROCK1, MAD2, p-H2AX^Ser139, cyclin B, p-cdc2^Tyr15, […] (all from Cell Signaling), caspase-3 (Alexis), or β-actin (Sigma-Aldrich) for 2 h at room temperature. Membranes were next incubated with peroxidase labeled secondary antibodies for 60 min. All membranes were visualized using ECL Select (GE Healthcare), and images were acquired using an Uvitec-Alliance imaging system (Uvitec, Cambridge, UK). To ensure equal protein loading, each membrane was stripped and reprobed with anti-β-actin antibody.
(A western blot detects proteins with antibodies after separation by electrophoresis.)

Where [6] appears, read: highest dose (7.5 mg/kg i.p.), mice, data not shown.
[7] abbreviates: HeLa, 24 h, all concentrations examined.

Read-outs that look alike come from different tables or passages of the source.

In turn, `CCOc1ccc(-c2nccn2-c2cc(OC)c(OC)c(OC)c2)cc1Cl` [Compound 4o, 2-(3′-Chloro-4′-ethoxyphenyl)-1-(3′,4′,5′-trimethoxyphenyl)-1H-imidazole] showed an IC50 in data set [1] of 0.0012 ± 0.0007 µM. The IC50 in data set [2] (Homo sapiens, Lymphocyte) is around 0.5 µM. Moreover, in data set [2], the IC50 turned out to be 0.52 ± 0.04 µM. The “lowest concentration with a rise in G2/M cells” value in data set [3] is listed as 25 nM. Besides, the “reduction of tumor mass” value in data set [4] (1 mg/kg i.p.) is on record as 26.0%. In addition, the “reduction of tumor mass” value in data set [4] (3.5 mg/kg i.p.) came to 32.2%. In data set [4] (7.5 mg/kg i.p.), the “reduction of tumor mass” value came out at 45.8%. For the same compound, in data set [4] (setting [6]), the animal body weight result was “did not cause a decrease in animal body weight” and the signs of toxicity result is reported as “did not present any sign of toxicity”. For the same compound, in data set [5] (HeLa), the “phosphorylation of γH2A.X (Ser139)” value is listed as “remarkable increase”. Also, the “cyclin B1 expression” value in data set [5] (HeLa, 50 nM, 24 h) was “marked increase”. In data set [5] (HeLa, 24 and 48 h), the MAD2 expression entry is “substantially decreased” and the “expression of phosphorylated cdc2” value is on record as “strongly decreased”. Also, the PARP result in data set [5] (HeLa, 50, 100 and 250 nM, 24 and 48 h) was “cleavage of PARP”. Moreover, in data set [5] (HeLa, 50, 100 and 250 nM, in particular after 48 h), the caspase-3 result is listed as “activation of the effector caspase-3”. For the same compound, in data set [5] (HeLa, 24 h), the “level of cdc20” value is “remained unaffected” and the “total cdc25c expression” value is reported as “strongly reduced”. Besides, in data set [5] (setting [7]), the Bcl-2 expression entry is reported as “dramatic decrease” and the Mcl-1 expression entry is on record as “dramatic decrease”. In data set [5] (HeLa, 24 h, effect disappeared at 48 h), the “phosphorylation of PLK1” value is “marked increase”. The ROCK1 cleavage entry in data set [5] (HeLa, 48 h) is recorded as “cleaved bands of ROCK1 appeared”.
